Results on 80 compounds are retold here after the METLIN SMRT retention time set (Domingo-Almenara et al. 2019).

A short description of the series: gradient 5% acetonitrile 3 min, to 50% in 2 min, to 85% in 15 min, held 3 min, 100 µL/min. As to conditions: column: Zorbax Extend-C18 2.1 x 50 mm; eluents: water / acetonitrile, 0.1% formic acid. The gist of the method:
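Over 3 months, pure standards in mixtures of ~100 molecules were run by HPLC coupled to a quadrupole time-of-flight mass spectrometer in positive and negative ionization mode. The column was a Zorbax Extend-C18 (2.1 × 50 mm, 1.8 μm) at 100 μL/min, eluted with water and acetonitrile each holding 0.1% formic acid, with 40 μL dead and 900 μL dwell volumes. Retention time was determined from adduct peaks chosen by software and checked manually.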
With `O=C(NCc1ccccc1)C1CCN(C(=O)c2ncn3c2COC(c2ccccc2)C3)CC1` (stereo not given), the RP-LC retention time was 760 s.
In the case of `Cc1cc2c(cc1CNC(=O)Cn1c(C(F)(F)F)nc3ccccc31)OCCCO2`, the RP-LC retention time stood at 849 s.
The compound `Cn1nc(-c2nc(C3CC3)no2)c2c1CCN(C(=O)c1ccncc1)C2` returned an RP-LC retention time of 628 s.
In the case of `COCCN1C(=O)[C@H]2CN(Cc3ccc(F)cc3)C[C@H]2C1=O` it was 585 s; in that of `O=C(c1ccc(Cl)s1)N1CCCC(CCc2nnc(C3CCOCC3)o2)C1` (stereo not given), 790 s.
In the case of `O=C(NC1CC1)c1cc(-c2cccs2)n(C2CCS(=O)(=O)C2)n1` (stereo not given) it was 710 s; in that of `Cc1sc2ccn(C)c(=O)c2c1C(=O)NCc1ccc(Br)cc1`, 811 s.
In the case of `CS(=O)(=O)N1CCN(C(=O)CCn2nnc3ccccc3c2=O)CC1` it was 604 s.
Regarding `CCCCCn1c(=O)c2ccccc2n(Cc2nc(-c3ccc(F)cc3)no2)c1=O`, the RP-LC retention time turned out to be 1270 s.
As for `CCOC(=O)c1[nH]c(C)c(CCC(=O)N2CCC(C(=O)NCCCN3CCOCC3)CC2)c1C`, the RP-LC retention time amounted to 580 s.
With `COc1ccccc1CCNC(=O)CSC1CCc2ccccc2NC1=O` (stereo not given), the RP-LC retention time amounted to 784 s.
Next, `COc1cc2c(cc1OC)C(C(=O)N1CCN(c3ccccn3)CC1)C(c1cccnc1)N(C)C2=O` (stereo not given): 1230 s; `Cc1nc(-c2ccccc2)nc2c1CCC(=O)N2C`: 868 s.
In the case of `O=C(NCc1ccccn1)C1CCN(c2ncnc3c2oc2ccccc23)CC1` it was 593 s; in that of `O=C(Nc1ccc(-c2nc(-c3ccccc3)co2)cc1)C1CCCCC1`, 1210 s.
In the case of `O=C(Cn1nc2c3cc(Cl)ccc3ncn2c1=O)Nc1ccccc1`, the RP-LC retention time was determined as 718 s.
Turning to `Fc1ccc(C2Cn3nnc(-c4nc(-c5ccncc5)no4)c3CO2)cc1` (stereo not given), the RP-LC retention time turned out to be 912 s.
Next, `COc1ccccc1C1(CNC(=O)NC2CCCCC2)CCOCC1`: 771 s; `COc1ccc(-c2noc(C3CC(=O)N(c4ccc(F)cc4)C3)n2)c(OC)c1` (stereo not given): 850 s.
`O=C(Nc1nc2c(s1)CN(Cc1ccccc1)CC2)C1CCCN1S(=O)(=O)c1cccs1` (stereo not given) had an RP-LC retention time of 654 s.
As for `O=S(=O)(NCc1nc(-c2cccc(-c3ccn[nH]3)c2)no1)c1ccccc1`, the RP-LC retention time was 768 s.
Turning to `O=C(NCc1ccco1)C1CCN(c2cncnc2N2CCOCC2)CC1`, the RP-LC retention time was determined as 578 s.
Compound `COCCCNC(=O)C1CCN(C2=NS(=O)(=O)C(c3ccc(Cl)cc3)=C2C)CC1` returned an RP-LC retention time of 748 s.
Compound `O=C(COc1ccccc1F)Nc1nnc(C2CCCCC2)o1` came in with an RP-LC retention time of 766 s.
With `O=C(Nc1ccccc1F)C(=O)c1cn(CC(=O)N2CCOCC2)c2ccccc12`, the RP-LC retention time was 906 s.
In turn, `CCn1cc(CC(=O)NCc2ccc(N3CCOCC3)cc2)c2cccnc21` showed an RP-LC retention time of 632 s.
Next, `COc1ccc(N2CCN(C(=O)C3CCCN(C(=O)c4[nH]c(C)cc4C)C3)CC2)cc1` (stereo not given): 763 s; `CCOc1ccc(CNC(=O)C2CCCN(c3nnc(C)c4c(C)n(-c5ccc(C)cc5)nc34)C2)cc1` (stereo not given): 785 s; `CCN1C(=O)COc2ccc(-c3csc(NC(=O)C4CCCO4)n3)cc21` (stereo not given): 838 s.
`CCN1C(=O)c2cccnc2Sc2cc(NC(=O)COC)ccc21` came in with an RP-LC retention time of 655 s.
For the compound `O=C(NC1CCN(Cc2ccccc2)CC1)c1cc2n(n1)CCCN(Cc1ccccc1)C2=O`, the RP-LC retention time amounted to 640 s.
In the case of `CNC(=O)c1cc(C(=O)c2ccc3nc(Nc4cccc(C(F)(F)F)c4)[nH]c3c2)ccn1`, the RP-LC retention time stood at 747 s.
Next, `CCc1nc2cc(-c3noc(COc4ccc(Cl)cc4)n3)ccc2o1`: 1170 s; `COc1ccc(-c2ccnc3ncnn23)c(F)c1`: 681 s.
For the compound `CC(C(=O)O)c1ccc2c(c1)Cc1cccnc1O2` (stereo not given), the RP-LC retention time came out at 797 s.
In the case of `Cc1ccc(CNC(=O)c2cc3sc(Cl)cc3n2C)cc1` it was 1110 s; in that of `CCOC(=O)c1c(NC(=O)c2ccc(S(=O)(=O)N(C)C)cc2)sc(C)c1C`, 1170 s.
In the case of `CCCn1cc(C(=O)NC2CCN(Cc3ccccc3)CC2)c2cccnc21`, the RP-LC retention time amounted to 624 s.
`Cc1cc(NC(=O)Cn2ccn3nc(-c4ccccc4)c(CO)c3c2=O)n[nH]1` returned an RP-LC retention time of 644 s.
In the case of `Cn1cccc1C(=O)N1CCN(C(=O)c2nnn3c2COC(c2ccc(Cl)cc2)C3)CC1` (stereo not given) it was 839 s.
In the case of `COC(=O)c1sccc1NC(=O)N1CCCn2nc(-c3ccncc3)cc2C1` it was 647 s; in that of `COc1ccc(C2SCCN2S(=O)(=O)c2ccc(C)c([N+](=O)[O-])c2)cc1OC` (stereo not given), 900 s; in that of `CCc1nc2cc(-c3noc(-c4ccc5c(c4)OCO5)n3)ccc2o1`, 1150 s.
In the case of `COc1cc(-c2noc(C3CC(=O)N(c4ccc(C)c(C)c4)C3)n2)cc(OC)c1OC` (stereo not given) it was 990 s; in that of `CC(=O)NC(C)C(=O)N1CCC(CCOc2cccnc2)CC1` (stereo not given), 567 s; in that of `Cc1noc(-c2ccnc(-n3ncc(C(=O)NC4CCCCC4)c3C)c2)n1`, 892 s.
For the compound `Cc1cc(Cl)ccc1NC(=O)CN(C)S(=O)(=O)c1cc(C(=O)N2CCC(C)CC2)n(C)c1`, the RP-LC retention time amounted to 934 s.
Turning to `Cc1cc(Nc2ccccc2)nn1C(=O)c1ccc([N+](=O)[O-])cc1`, the RP-LC retention time turned out to be 987 s.
For `CCCNC(=O)C1CCN(c2ccc(SCC(=O)Nc3cccc(C(=O)OCC)c3)nn2)CC1`, the RP-LC retention time came out at 675 s.
`COc1ccc2c(c1)C1(CCN(C(=O)Cc3ccccc3Cl)C1)C(=O)N2C` (stereo not given) showed an RP-LC retention time of 848 s.
`O=C(O)c1cn(-c2ccc3c(c2)CCC3)nn1` displayed an RP-LC retention time of 768 s.
In the case of `CCOC(=O)N1CCN(c2ncc(S(=O)(=O)c3ccc(C)cc3)c(N)n2)CC1` it was 875 s; in that of `Cc1ccc(OCc2nn3c(-c4ccoc4C)nnc3s2)cc1`, 1010 s; in that of `Cn1nc(C(=O)N2CCOCC2)c2c1CCN(C(=O)Nc1ccccc1Cl)C2`, 674 s.
Turning to `Cc1ccc2c(=O)c(C(=O)N3CCCC3)cn(CC(=O)Nc3ccc(C)c(C)c3)c2n1`, the RP-LC retention time turned out to be 733 s.
`O=C(Nc1ccc(Cl)c(N2CCCS2(=O)=O)c1)c1ccno1` had an RP-LC retention time of 676 s.
For the compound `CNC(=O)C1CCCN(c2nc3ncn(CC(=O)Nc4cccc(F)c4)c(=O)c3s2)C1` (stereo not given), the RP-LC retention time was found to be 645 s.
In the case of `CCNC(=O)C1CCCN(c2nc3ncn(CC(=O)Nc4cc(C)ccc4C)c(=O)c3s2)C1` (stereo not given) it was 673 s; in that of `COC(=O)c1ccc2c(=O)n(-c3ccc(Cl)cc3)c(N3CCC(C(N)=O)CC3)nc2c1`, 754 s.
Compound `COc1ccc(-c2nc(C)cc(C)c2CNC(=O)c2ccc(Br)o2)cc1` yielded an RP-LC retention time of 634 s.
For `COc1ccc(-c2ccnn2-c2ccc(SCc3cccc(C)c3)nn2)cc1`, the RP-LC retention time was 1400 s.
`O=C(CCS(=O)(=O)c1ccccc1)NCCOc1ccc(-c2ccc(F)cc2)nn1` showed an RP-LC retention time of 715 s.
Next, `CCc1noc(NC(C)=O)c1-c1ccc(OC)c(S(=O)(=O)Nc2ccc(F)cc2C)c1`: 796 s; `COc1ccc(-c2oc3c(CC=C(C)C)c(O)cc(O)c3c(=O)c2O)cc1`: 1040 s.
Regarding `CCN(C(=O)C1CCC(C)CC1)c1nc(-c2ccc(C)cc2)cs1` (stereo not given), the RP-LC retention time was determined as 767 s.
Turning to `CCOc1cccc(-c2noc(Cc3nnc(-c4ccccc4)o3)n2)c1`, the RP-LC retention time came out at 1060 s.
In the case of `CC(C)CC(=O)Nc1ccc(-c2nc(-c3ccc(F)cc3)no2)cc1` it was 1170 s; in that of `COc1ccc(CN(C)Cc2cc(=O)n3cc(Cl)ccc3n2)cc1OC`, 606 s.
Compound `COc1cccc(C(=O)NC2CCN(c3cc(-c4cccs4)[nH]n3)C2)c1` (stereo not given) showed an RP-LC retention time of 700 s.
In the case of `COc1ccc(CCNC(=O)C2CCN(S(C)(=O)=O)c3cc(Cl)ccc3O2)cc1` (stereo not given) it was 889 s; in that of `COc1cccc(CN2CC(=O)N(Cc3cccc(F)c3)c3ccccc3S2(=O)=O)c1`, 1070 s; in that of `Cc1cc(C)cc(Nc2ncccc2S(N)(=O)=O)c1`, 898 s.
Next, `CCC(=O)Nc1ccc(-n2cnc(C(=O)NC3CCCCC3)c2)nc1`: 731 s; `Cc1nn(-c2ccc(C(=O)NCc3cccs3)cc2)c2c1C(=O)CCC2`: 749 s.
In the case of `O=C(c1cc(S(=O)(=O)N2CCCCCC2)ccc1Cl)N1CCN(c2ncccn2)CC1`, the RP-LC retention time was found to be 926 s.
As to `CCNC(=O)c1ccc2nnc(C3CC3)n2c1`, the RP-LC retention time stood at 590 s.
The compound `Cc1cc(C(=O)Nc2ccc(Cl)cc2)nc2ccnn12` gave an RP-LC retention time of 1010 s.
In turn, `O=C(Cc1cc(-c2ccc3c(c2)OCO3)on1)NCc1cccnc1` yielded an RP-LC retention time of 573 s.
In the case of `CCC(C(=O)NCCCN1CCCCC1)n1nc(C)c2sc3ccccc3c2c1=O` (stereo not given) it was 691 s.
In the case of `O=C(CSC1CCc2ccccc2NC1=O)Nc1ccc(F)c(Cl)c1` (stereo not given), the RP-LC retention time turned out to be 873 s.
